Data set [1] concerns the target Sodium channel protein type 10 subunit alpha (Mus musculus, UniProt Q6QIY3). Nature of the data set: Inhibition of mouse recombinant Nav 1.8 channel expressed in HEK293 cells by isotopic efflux assay. It is filed as cell-based.
Data set [2] has as its target T1, Sodium channel protein type 10 subunit alpha (Homo sapiens, UniProt Q9Y5Y9). Description: Activity at human recombinant Nav 1.8 channel expressed in HEK293 cells in resting state with prepulse voltage of -100 mV assessed as blockade of TTx-resistant sodium current at 0.03 uM. It is filed as cell-based.
In data set [3] the target is Sodium channel protein type 2 subunit alpha (Homo sapiens) (UniProt Q99250). Nature of the data set: Inhibition of human Nav1.2 channel at 0.03 uM.
Sodium channel protein type 2 subunit alpha (Homo sapiens), sequence (Q99250 whole entry, looked up): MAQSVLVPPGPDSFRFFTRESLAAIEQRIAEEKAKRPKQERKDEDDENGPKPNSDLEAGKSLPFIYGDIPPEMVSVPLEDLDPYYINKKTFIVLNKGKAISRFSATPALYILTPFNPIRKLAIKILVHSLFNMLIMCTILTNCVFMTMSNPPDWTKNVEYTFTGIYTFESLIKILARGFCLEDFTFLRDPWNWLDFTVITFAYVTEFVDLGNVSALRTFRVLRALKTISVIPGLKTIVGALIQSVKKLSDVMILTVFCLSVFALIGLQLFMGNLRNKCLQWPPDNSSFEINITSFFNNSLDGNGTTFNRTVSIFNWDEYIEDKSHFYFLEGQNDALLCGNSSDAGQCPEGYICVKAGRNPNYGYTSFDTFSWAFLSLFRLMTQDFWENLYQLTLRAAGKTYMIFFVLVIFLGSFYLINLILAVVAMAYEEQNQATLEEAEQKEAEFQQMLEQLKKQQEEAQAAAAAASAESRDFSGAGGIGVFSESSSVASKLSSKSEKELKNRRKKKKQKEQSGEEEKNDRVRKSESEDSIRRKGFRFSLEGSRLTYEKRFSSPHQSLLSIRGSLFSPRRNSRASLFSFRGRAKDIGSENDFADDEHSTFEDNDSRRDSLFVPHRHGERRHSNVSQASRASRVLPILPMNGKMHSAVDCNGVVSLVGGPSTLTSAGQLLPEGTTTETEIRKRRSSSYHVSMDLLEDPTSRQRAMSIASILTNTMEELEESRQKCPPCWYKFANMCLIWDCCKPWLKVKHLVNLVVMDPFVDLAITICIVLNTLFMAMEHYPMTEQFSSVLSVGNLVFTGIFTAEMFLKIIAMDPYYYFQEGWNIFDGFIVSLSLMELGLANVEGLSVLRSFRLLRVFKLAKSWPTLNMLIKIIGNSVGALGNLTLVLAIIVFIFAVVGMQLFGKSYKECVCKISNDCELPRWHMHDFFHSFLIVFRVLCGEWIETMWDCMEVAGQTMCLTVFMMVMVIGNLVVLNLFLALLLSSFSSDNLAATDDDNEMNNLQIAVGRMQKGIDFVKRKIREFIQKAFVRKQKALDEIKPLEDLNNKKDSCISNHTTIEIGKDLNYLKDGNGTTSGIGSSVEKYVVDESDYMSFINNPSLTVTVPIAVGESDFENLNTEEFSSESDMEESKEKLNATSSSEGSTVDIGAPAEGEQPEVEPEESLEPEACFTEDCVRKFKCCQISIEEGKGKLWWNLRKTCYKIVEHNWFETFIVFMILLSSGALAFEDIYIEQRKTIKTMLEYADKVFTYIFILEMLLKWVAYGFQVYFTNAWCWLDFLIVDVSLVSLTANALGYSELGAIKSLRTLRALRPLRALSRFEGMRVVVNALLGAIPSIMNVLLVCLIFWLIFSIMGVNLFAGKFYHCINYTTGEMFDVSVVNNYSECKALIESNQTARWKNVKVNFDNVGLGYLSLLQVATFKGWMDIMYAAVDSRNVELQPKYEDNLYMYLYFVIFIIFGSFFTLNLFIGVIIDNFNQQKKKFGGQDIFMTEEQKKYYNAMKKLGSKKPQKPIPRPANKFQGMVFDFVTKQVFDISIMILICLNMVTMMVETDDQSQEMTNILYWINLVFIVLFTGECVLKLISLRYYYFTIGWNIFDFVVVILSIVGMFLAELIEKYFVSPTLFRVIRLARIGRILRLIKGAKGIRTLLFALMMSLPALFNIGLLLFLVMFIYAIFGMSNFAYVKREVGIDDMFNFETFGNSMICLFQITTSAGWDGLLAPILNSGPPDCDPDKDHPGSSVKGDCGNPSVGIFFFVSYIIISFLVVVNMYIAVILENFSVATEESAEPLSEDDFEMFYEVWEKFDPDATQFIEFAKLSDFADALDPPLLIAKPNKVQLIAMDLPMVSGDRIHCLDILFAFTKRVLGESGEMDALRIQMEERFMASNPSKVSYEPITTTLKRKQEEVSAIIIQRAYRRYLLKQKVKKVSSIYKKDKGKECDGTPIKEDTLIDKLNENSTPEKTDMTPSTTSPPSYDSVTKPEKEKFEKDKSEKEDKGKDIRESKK
Data set [4] has as its target T1, Sodium channel protein type 10 subunit alpha. Nature of the data set: Inhibition of human recombinant Nav 1.8 channel expressed in HEK293 cells at 0.03 uM. Type of data set: cell-based.
Data set [5] shares this target. Description: Inhibition of human recombinant Nav 1.8 channel expressed in HEK293 cells at 0.001 uM. Type of data set: cell-based.
For data set [6] the target is unchanged. Nature of the data set: Activity at human recombinant Nav 1.8 channel expressed in HEK293 cells in resting state with prepulse voltage of -100 mV assessed as blockade of TTx-resistant sodium current at 0.001 uM. Type of data set: cell-based.
Data set [7] deals with T2, Nav1.5 (sodium channel protein type 5 subunit alpha) (Homo sapiens, UniProt Q14524). Description: Inhibition of human Nav1.5 channel at 0.3 uM.
T2 sequence (Q14524 whole entry): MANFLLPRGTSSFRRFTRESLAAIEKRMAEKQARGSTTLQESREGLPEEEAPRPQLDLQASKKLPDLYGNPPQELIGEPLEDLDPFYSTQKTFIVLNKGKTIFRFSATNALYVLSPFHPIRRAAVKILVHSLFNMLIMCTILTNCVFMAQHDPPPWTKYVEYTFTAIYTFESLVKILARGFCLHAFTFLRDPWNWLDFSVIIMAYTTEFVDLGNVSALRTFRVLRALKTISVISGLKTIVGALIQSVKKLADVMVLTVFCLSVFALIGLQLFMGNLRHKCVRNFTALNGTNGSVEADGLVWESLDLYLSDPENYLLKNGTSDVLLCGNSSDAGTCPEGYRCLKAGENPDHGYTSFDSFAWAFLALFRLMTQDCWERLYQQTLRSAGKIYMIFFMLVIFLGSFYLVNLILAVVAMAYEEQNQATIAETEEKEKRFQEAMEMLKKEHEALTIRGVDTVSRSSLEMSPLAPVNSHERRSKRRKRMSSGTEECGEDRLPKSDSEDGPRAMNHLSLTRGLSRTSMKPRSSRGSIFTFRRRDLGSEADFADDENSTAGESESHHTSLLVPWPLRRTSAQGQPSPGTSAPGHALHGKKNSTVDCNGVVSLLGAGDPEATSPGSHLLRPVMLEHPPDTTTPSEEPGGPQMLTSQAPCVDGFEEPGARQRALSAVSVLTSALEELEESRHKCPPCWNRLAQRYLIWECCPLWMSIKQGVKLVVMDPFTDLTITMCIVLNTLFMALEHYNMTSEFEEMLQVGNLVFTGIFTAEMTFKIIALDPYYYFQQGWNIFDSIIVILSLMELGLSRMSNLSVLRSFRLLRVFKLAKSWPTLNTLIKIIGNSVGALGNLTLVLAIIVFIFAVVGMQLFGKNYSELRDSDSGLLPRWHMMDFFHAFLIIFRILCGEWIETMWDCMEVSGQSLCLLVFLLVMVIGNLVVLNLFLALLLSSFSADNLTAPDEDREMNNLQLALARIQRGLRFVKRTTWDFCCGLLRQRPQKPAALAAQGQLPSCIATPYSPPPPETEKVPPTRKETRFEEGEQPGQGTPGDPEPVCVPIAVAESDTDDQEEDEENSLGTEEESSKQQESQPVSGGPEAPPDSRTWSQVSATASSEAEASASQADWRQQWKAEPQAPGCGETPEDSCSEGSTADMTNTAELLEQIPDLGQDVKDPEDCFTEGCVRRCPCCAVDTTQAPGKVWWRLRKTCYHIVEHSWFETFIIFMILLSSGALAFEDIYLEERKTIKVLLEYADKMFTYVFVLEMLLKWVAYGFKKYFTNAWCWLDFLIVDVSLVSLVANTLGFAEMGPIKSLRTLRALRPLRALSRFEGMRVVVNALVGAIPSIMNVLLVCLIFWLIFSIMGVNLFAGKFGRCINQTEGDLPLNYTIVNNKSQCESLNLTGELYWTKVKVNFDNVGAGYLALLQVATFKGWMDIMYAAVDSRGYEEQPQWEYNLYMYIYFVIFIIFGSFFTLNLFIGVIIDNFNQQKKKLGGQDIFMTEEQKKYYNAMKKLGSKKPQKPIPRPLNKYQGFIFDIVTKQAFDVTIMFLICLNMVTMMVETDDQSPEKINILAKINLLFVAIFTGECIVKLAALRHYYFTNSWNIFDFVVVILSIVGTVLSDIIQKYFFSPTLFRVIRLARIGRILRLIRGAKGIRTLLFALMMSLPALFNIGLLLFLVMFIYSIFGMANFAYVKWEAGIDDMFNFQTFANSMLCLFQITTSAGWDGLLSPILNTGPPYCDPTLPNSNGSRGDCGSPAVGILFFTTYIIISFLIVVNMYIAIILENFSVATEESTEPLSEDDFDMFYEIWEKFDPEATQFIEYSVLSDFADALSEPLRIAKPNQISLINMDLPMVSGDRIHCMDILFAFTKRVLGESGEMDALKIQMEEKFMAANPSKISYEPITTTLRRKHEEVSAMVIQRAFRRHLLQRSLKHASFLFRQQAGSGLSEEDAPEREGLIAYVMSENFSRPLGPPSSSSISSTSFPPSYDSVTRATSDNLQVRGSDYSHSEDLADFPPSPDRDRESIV
The target in data set [8] is Sodium channel protein type 2 subunit alpha (Homo sapiens) (UniProt Q99250). Nature of the data set: Inhibition of human Nav1.2 channel at 0.3 uM.
Data set [9] in a line: Activity at rat dorsal root ganglion in resting state with prepulse voltage of -100 mV assessed as blockade of TTx-resistant sodium current at 0.03 uM by whole-cell patch clamp technique. Type of data set: functional.
In data set [10] the target is Sodium channel protein type 3 subunit alpha (Homo sapiens) (UniProt Q9NY46). Nature of the data set: Inhibition of human Nav1.3 channel at 0.3 uM.
Data set [11] has as its target Sodium channel protein type 9 subunit alpha (Homo sapiens) (UniProt Q15858). Description: Inhibition of human Nav1.7 channel at 0.3 uM.
Data set [12] deals with T1, Sodium channel protein type 10 subunit alpha. Description: Activity at human recombinant Nav 1.8 channel expressed in HEK293 cells in inactivated state with prepulse voltage of -40 mV assessed as blockade of TTx-resistant sodium current at 0.001 uM. It is filed as cell-based.
Data set [13] shares this target. Nature of the data set: Activity at human recombinant Nav 1.8 channel expressed in HEK293 cells in inactivated state with prepulse voltage of -40 mV assessed as blockade of TTx-resistant sodium current at 0.03 uM. Type of data set: cell-based.
The nature of data set [14]: Activity at rat dorsal root ganglion in resting state with prepulse voltage of -100 mV assessed as blockade of TTx-resistant sodium current at 0.003 uM by whole-cell patch clamp technique. Type of data set: functional. On the technique in general: Patch clamp records ionic current or voltage across a cell membrane.
The nature of data set [15]: Activity at rat dorsal root ganglion in inactivated state with prepulse voltage of -40 mV assessed as blockade of TTx-resistant sodium current at 0.003 uM by whole-cell patch clamp technique. It is filed as functional.
Data set [16] addresses T2, Nav1.5 (sodium channel protein type 5 subunit alpha). Nature of the data set: Inhibition of human Nav1.5 channel at 0.03 uM.
Data set [17] in a line: Activity at rat dorsal root ganglion in inactivated state with prepulse voltage of -40 mV assessed as blockade of TTx-resistant sodium current at 0.03 uM by whole-cell patch clamp technique. Type of data set: functional.
Data set [18] concerns the target Voltage-gated inwardly rectifying potassium channel KCNH2 (Homo sapiens, UniProt Q12809). Nature of the data set: Inhibition of hERG potassium channel expressed in CHO cells by isotope efflux assay.
In data set [19] the target is Sodium channel protein type 9 subunit alpha (Homo sapiens) (UniProt Q15858). Description: Inhibition of human Nav1.7 channel at 3 uM.
The target in data set [20] is T2, Nav1.5 (sodium channel protein type 5 subunit alpha). Description: Inhibition of human Nav1.5 channel at 3 uM.
Data set [21] concerns the target Sodium channel protein type 2 subunit alpha (Homo sapiens) (UniProt Q99250). Description: Inhibition of human Nav1.2 channel at 3 uM.
Data set [22] is described as follows: Activity at rat dorsal root ganglion in inactivated state with prepulse voltage of -40 mV assessed as blockade of TTx-resistant sodium current at 0.3 uM by whole-cell patch clamp technique. Type of data set: functional.
The target in data set [23] is Sodium channel protein type 3 subunit alpha (Homo sapiens) (UniProt Q9NY46). Description: Inhibition of human Nav1.3 channel at 1 uM.
Data set [24] can be described thus: Activity at rat dorsal root ganglion in inactivated state with prepulse voltage of -40 mV assessed as blockade of TTx-resistant sodium current at 0.1 uM by whole-cell patch clamp technique. It is filed as functional.
Data set [25] can be described thus: Aqueous solubility of the compound. Type of data set: physicochemical.
Data set [26] deals with Sodium channel protein type 2 subunit alpha (Homo sapiens) (UniProt Q99250). Description: Inhibition of human Nav1.2 channel at 1 uM.
Data set [27] in a line: Activity at rat dorsal root ganglion in resting state with prepulse voltage of -100 mV assessed as blockade of TTx-resistant sodium current at 0.1 uM by whole-cell patch clamp technique. It is filed as functional.
The target of data set [28] is Sodium channel protein type 3 subunit alpha (Homo sapiens) (UniProt Q9NY46). Description: Inhibition of human Nav1.3 channel at 3 uM.
Data set [29] can be described thus: Activity at rat dorsal root ganglion in resting state with prepulse voltage of -100 mV assessed as blockade of TTx-resistant sodium current at 0.3 uM by whole-cell patch clamp technique. It is filed as functional.
Data set [30] deals with T1, Sodium channel protein type 10 subunit alpha. Nature of the data set: Inhibition of human recombinant Nav 1.8 channel expressed in HEK293 cells at 0.1 uM. Type of data set: cell-based.
Data set [31] has the same target. Nature of the data set: Activity at human recombinant Nav 1.8 channel expressed in HEK293 cells in inactivated state with prepulse voltage of -40 mV assessed as blockade of TTx-resistant sodium current at 0.1 uM. It is filed as cell-based.
Data set [32] shares this target. Description: Activity at human recombinant Nav 1.8 channel expressed in HEK293 cells in resting state with prepulse voltage of -100 mV assessed as blockade of TTx-resistant sodium current at 0.1 uM. It is filed as cell-based.

The values below come from ChEMBL document CHEMBL1140726, “Discovery and biological evaluation of 5-aryl-2-furfuramides, potent and selective blockers of the Nav1.8 sodium channel with efficacy in models of neuropathic and inflammatory pain” (J Med Chem, 2008).

Voltage-gated inwardly rectifying potassium channel KCNH2, sequence (Q12809 whole entry): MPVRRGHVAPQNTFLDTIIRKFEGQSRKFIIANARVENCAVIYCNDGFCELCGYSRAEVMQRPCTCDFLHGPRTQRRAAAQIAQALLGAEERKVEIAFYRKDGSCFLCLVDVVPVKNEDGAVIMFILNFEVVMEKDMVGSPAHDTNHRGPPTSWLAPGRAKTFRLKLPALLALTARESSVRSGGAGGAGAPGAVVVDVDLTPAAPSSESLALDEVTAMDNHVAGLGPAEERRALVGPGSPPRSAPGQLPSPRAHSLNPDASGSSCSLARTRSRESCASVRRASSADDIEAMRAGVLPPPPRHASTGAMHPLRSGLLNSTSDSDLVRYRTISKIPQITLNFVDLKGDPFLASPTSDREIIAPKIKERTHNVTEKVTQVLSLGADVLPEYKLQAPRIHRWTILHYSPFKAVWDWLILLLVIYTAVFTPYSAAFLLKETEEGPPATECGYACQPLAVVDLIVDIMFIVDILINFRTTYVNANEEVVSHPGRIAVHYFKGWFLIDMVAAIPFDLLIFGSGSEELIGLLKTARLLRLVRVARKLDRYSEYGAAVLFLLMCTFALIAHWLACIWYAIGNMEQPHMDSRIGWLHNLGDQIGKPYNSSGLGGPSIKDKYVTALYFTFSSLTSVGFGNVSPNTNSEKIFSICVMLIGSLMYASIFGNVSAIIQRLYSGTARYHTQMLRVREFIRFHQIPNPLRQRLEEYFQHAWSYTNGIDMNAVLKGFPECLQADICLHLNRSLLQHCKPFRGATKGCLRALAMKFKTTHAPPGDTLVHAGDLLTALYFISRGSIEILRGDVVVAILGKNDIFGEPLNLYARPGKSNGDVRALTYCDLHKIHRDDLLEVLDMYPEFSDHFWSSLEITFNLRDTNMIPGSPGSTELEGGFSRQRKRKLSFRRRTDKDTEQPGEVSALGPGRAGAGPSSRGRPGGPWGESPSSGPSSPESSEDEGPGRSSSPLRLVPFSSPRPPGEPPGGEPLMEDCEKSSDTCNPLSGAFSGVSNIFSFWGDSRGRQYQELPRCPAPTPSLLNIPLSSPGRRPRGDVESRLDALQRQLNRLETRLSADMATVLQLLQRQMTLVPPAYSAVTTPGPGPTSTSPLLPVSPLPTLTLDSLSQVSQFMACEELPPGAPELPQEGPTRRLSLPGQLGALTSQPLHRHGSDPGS

As to `Cc1cccc(N(C)C(=O)c2ccc(-c3ccc(Cl)cc3)o2)c1`, in data set [1], the IC50 (commonly the point on the concentration scale where inhibition reaches its midpoint) turned out to be 3.4 µM.

On to `O=C(c1ccc(-c2ccc(Cl)cc2)o1)N1CCOCC1`, for which, in [1], the IC50 is greater than 30 µM.

On to `Cc1cccc(NC(=O)c2ccc(-c3ccc(S(C)(=O)=O)cc3)o2)c1`, for which the IC50 in data set [1] is greater than 30 µM.

On to `CN1CCc2ccc(NC(=O)c3ccc(-c4ccc(Cl)cc4)o3)cc21`, for which the IC50 in [1] is 4.6 µM.

For the molecule `Cc1cccc(NC(=O)c2cc(-c3ccc(Cl)cc3)co2)c1`, the IC50 in data set [1] was 5.3 µM.

On to `Cc1cccc(NC(=O)c2ccc(-c3cccc(C(F)(F)F)c3)o2)c1`, for which the IC50 in data set [1] came to 7.5 µM.

On to `Cc1cccc(NC(=O)c2coc(-c3ccc(Cl)cc3)c2)c1`, for which the IC50 in data set [1] came to 20 µM.

Turning to `Cc1cccc(N/C(=N/C#N)c2ccc(-c3ccc(Cl)cc3)o2)c1`, the inhibition (as a rule, the relative decrease from the control value, in per cent) in [2] came to 94%; in [3] it was 91%; in [4], 99%; in data set [5] it was 76%; in data set [6], 46%; in [8], 94%. The inhibition was 24% in data set [10], 70% in [11], 76% in data set [12] and 99% in [13]. Moreover, the half-maximal inhibitory concentration (IC50) was 0.03 µM in [1] and greater than 30 µM in data set [18]. For the same molecule, testing at 0.3 µM in data set [7] gave an inhibition of 69%. Besides, the inhibition at 0.03 µM amounted to 45% in data set [9], 32% in [16] and 71% in data set [17]. Moreover, the inhibition at 0.003 µM in data set [14] came out at 22%; in data set [15] it was 51%.

Consider `O=C(Nc1ccc2ncccc2c1)c1ccc(-c2ccc(Cl)cc2)o1`, for which the IC50 in data set [1] worked out at 10 µM.

Regarding `Cc1cccc(NC(=O)c2ccc(-c3ccc(Cl)cc3)o2)c1`, the inhibition worked out at 41% in data set [19]; 61% in data set [2]; 68% in data set [4]; 54% in data set [21]; 17% in [23]; 68% in [13]. Further, the inhibition in data set [26] was 33%; in data set [28], 61%; in data set [30], 77%; in data set [31], 77%; in [32], 67%. The IC50 was 0.48 µM in data set [1] and 27 µM in [18]. In addition, the inhibition at 3 µM in data set [20] turned out to be 51%. For the same molecule, the inhibition at 0.3 µM in [22] came out at 60%; in [29] it was 18%. Moreover, the inhibition at 0.1 µM in data set [24] was found to be 37%; in data set [27] it was 3%. The solubility (in general, the concentration that dissolves in the medium under given conditions) in [25] is less than 0.1 µg/mL.

For `CN1CCOc2cc(NC(=O)c3ccc(-c4ccc(Cl)cc4)o3)ccc21`, the IC50 in [1] amounted to 0.97 µM.

For `CCOc1ccc(-c2ccc(C(=O)Nc3cccc(C)c3)o2)cc1`, the IC50 in [1] was determined as 0.43 µM.
